Test results from article PMC8617303 (2021).
Each block holds one compound with its values, some of them ahead of it.

What was measured:
[1] = system: c-myc G-quadruplex (DNA, G4) TGAGGGTGGTGAGGGTGGGGAAGG; assay: fluorescence titration, plate reader; details: 2 nM compound; site 1 of 2
[2] = system: c-myc G-quadruplex (DNA, G4) TGAGGGTGGTGAGGGTGGGGAAGG; assay: ITC; details: K+ (50 mM KCl, 10 mM potassium phosphate); pH 7.0, 25 °C; site 1 of 2
[3] = system: c-myc mutant DNA (DNA, single strand) TGAAAATAATGAAAATAAAAAAGA; assay: ITC; details: K+ (50 mM KCl, 10 mM potassium phosphate); pH 7.0, 25 °C; ~10^4 fold lower affinity than c-myc G4
[4] = system: c-myc duplex (DNA, duplex) TGAGGGTGGTGAGGGTGGGGAAGG/CCTTCCCCACCCTCACCACCCTCA; assay: ITC; details: K+ (50 mM KCl, 10 mM potassium phosphate); pH 7.0, 25 °C; ~10^4 fold lower affinity than c-myc G4
[5] = system: c-myc mutant DNA (DNA, single strand) TGAAAATAATGAAAATAAAAAAGA; assay: gel retardation, native PAGE; details: K+ (50 mM KCl, 10 mM potassium phosphate); pH 7.0, 25 °C; 10 µM DNA; up to 100 µM compound
[6] = system: tel22 G-quadruplex (DNA, G4) AGGGTTAGGGTTAGGGTTAGGG; assay: fluorescence titration, plate reader; details: 2 nM compound
[7] = system: c-kit21 G-quadruplex (DNA, G4) CGGGCGGGGCGCGAGGAAAA; assay: fluorescence titration, plate reader; details: 2 nM compound; site 1 of 2
[8] = system: bcl-2 G-quadruplex (DNA, G4) AGGGGCGGGCGCGGGAGGAAGGGGGCGGGAGCGGGGCTG; assay: fluorescence titration, plate reader; details: 2 nM compound; site 1 of 2
[9] = system: c-myc mutant DNA (DNA, single strand) TGAAAATAATGAAAATAAAAAAGA; assay: fluorescence titration, plate reader; details: 2 nM compound
[10] = system: c-myc duplex (DNA, duplex) TGAGGGTGGTGAGGGTGGGGAAGG/CCTTCCCCACCCTCACCACCCTCA; assay: fluorescence titration, plate reader; details: 2 nM compound; site 1 of 2

SMILES: O=S(=O)(NCCNS(=O)(=O)c1ccccc1)c1ccccc1
- Ka1 [2]: 3.81 × 10^7 ± 0.01 M^-1
- binding [3]: weak
- binding [4]: weak
- binding [5]: no
- Kd1 [1]: 0.002 ± 0.001 µM
- Kd1 ([6]; site 1 of 2): 0.19 ± 0.02 µM
- Kd1 [7]: 4.86 ± 0.02 µM
- Kd1 [8]: 0.024 ± 0.009 µM
- Kd2 [9]: 0.195 ± 0.04 µM
- Kd1 [10]: 1.81 ± 0.09 µM

SMILES: CC(=NNC(=S)NN=C(C)c1ccccc1)c1ccccc1
- Kd1 [1]: 2.86 ± 0.03 µM

SMILES: CC(C)=NOC(=O)Nc1ccc(Cl)cc1
- Ka1 [2]: 3.34 × 10^5 ± 0.4 M^-1
- Kd1 [1]: 0.010 ± 0.003 µM
- Kd2 ([6]; stronger of two sites, printed as Kd2 (Kd1 3.47)): 2.89 ± 0.03 µM
- Kd1 [7]: 1.71 ± 0.005 µM
- Kd1 [8]: 0.761 ± 0.01 µM
- Kd1 ([9]; site 1 of 2): 0.023 ± 0.03 µM
- Kd1 [10]: 0.559 ± 0.03 µM

Results, then the compound that gave them:

- Kd1 [1]: 1.34 ± 0.13 µM
SMILES: Cc1ccc(NC(=S)Nc2ccccc2)cc1

- Kd1 [1]: 3.76 ± 0.03 µM
SMILES: CC(CCN=Cc1ccccc1O)N=Cc1ccccc1O (centres unmarked)

- Ka1 [2]: 4.56 × 10^5 ± 0.03 M^-1
SMILES: O=C(/C=C/C=C/c1ccc2c(c1)OCO2)N1CCCCC1

- Kd1 [1]: 2.56 ± 0.02 µM
SMILES: Oc1ccccc1NCCNc1ccccc1O

- Kd1 [1]: 4.61 ± 0.05 µM
SMILES: O=C(CC(=O)Nc1ccccc1)Nc1ccccc1
